Data reported in ChEMBL document CHEMBL1201862, “PubChem BioAssay data set” (2004).
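Cells were grown in 96-well plates and exposed to each compound for 48 hours at five concentrations; endpoints were interpolated linearly between bracketing concentrations, or set to the highest concentration if not reached. GI50 marks 50% less growth.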 Activity calls are given as the source filed them. Rule as the data show it: active = GI50 up to about 1.1 µM and inactive = higher.

Legend:
Experiment in all cases: inhibition of tumour cell growth, NCI panel, 48 h
786-0 = test system: 786-0
U-251 = test system: U-251
NCI-H460 = test system: NCI-H460
PC-3 = test system: PC-3
COLO 205 = test system: COLO 205
HOP-92 = test system: HOP-92
IGROV-1 = test system: IGROV-1
HCT-116 = test system: HCT-116
SW-620 = test system: SW-620
CCRF-CEM = test system: CCRF-CEM
CAKI-1 = test system: CAKI-1
SK-MEL-5 = test system: SK-MEL-5
HOP-62 = test system: HOP-62
SK-MEL-2 = test system: SK-MEL-2
T47D = test system: T47D
SNB-75 = test system: SNB-75
ACHN = test system: ACHN
K562 = test system: K562
HCC 2998 = test system: HCC 2998
MDA-N = test system: MDA-N
MDA-MB-231 = test system: MDA-MB-231
MDA-MB-435 = test system: MDA-MB-435
BT-549 = test system: BT-549
KM12 = test system: KM12
OVCAR-5 = test system: OVCAR-5
Malme-3M = test system: Malme-3M
HT-29 = test system: HT-29
TK-10 = test system: TK-10
NCI/ADR-RES = test system: NCI/ADR-RES
RXF 393 = test system: RXF 393
DU-145 = test system: DU-145
UACC-257 = test system: UACC-257
SK-OV-3 = test system: SK-OV-3
RPMI-8226 = test system: RPMI-8226
SF-539 = test system: SF-539
UO-31 = test system: UO-31
A549 = test system: A549
SF-268 = test system: SF-268
SR = test system: SR
LOX IMVI = test system: LOX IMVI
OVCAR-8 = test system: OVCAR-8
NCI-H522 = test system: NCI-H522
Hs-578T = test system: Hs-578T
MOLT-4 = test system: MOLT-4
SK-MEL-28 = test system: SK-MEL-28
HCT-15 = test system: HCT-15
UACC-62 = test system: UACC-62
MCF7 = test system: MCF7
SF-295 = test system: SF-295
A498 = test system: A498
OVCAR-3 = test system: OVCAR-3
M14 = test system: M14
NCI-H226 = test system: NCI-H226
NCI-H23 = test system: NCI-H23
SN12C = test system: SN12C
EKVX = test system: EKVX
HL-60 = test system: HL-60
SNB-19 = test system: SNB-19
OVCAR-4 = test system: OVCAR-4

Measured: GI50

O=C(NC(Nc1ccc(F)c(Cl)c1)(C(F)(F)F)C(F)(F)F)OCc1ccccc1
inactive: 786-0 18.3 µM | U-251 29.2 µM | NCI-H460 85.1 µM | PC-3 17.4 µM | COLO 205 17.8 µM | HOP-92 23.2 µM | IGROV-1 39 µM | HCT-116 47.5 µM | SW-620 61.7 µM | CCRF-CEM 15.8 µM | CAKI-1 34.6 µM | SK-MEL-5 44.1 µM | HOP-62 30.3 µM | SK-MEL-2 69.3 µM | T47D 28.1 µM | SNB-75 36.9 µM | ACHN 17.7 µM | K562 10.8 µM | HCC 2998 22.1 µM | MDA-N 19.7 µM | MDA-MB-231 11.7 µM | MDA-MB-435 32.1 µM | BT-549 14.7 µM | KM12 36.3 µM | OVCAR-5 > 100 µM | Malme-3M 43.5 µM | HT-29 34 µM | TK-10 63.1 µM | NCI/ADR-RES 27.7 µM | RXF 393 43.3 µM | DU-145 24.4 µM | UACC-257 > 100 µM | SK-OV-3 26 µM | RPMI-8226 20.4 µM | SF-539 17.6 µM | UO-31 19.8 µM | A549 43 µM | SF-268 62.7 µM | SR 11 µM | LOX IMVI 64.7 µM | OVCAR-8 35 µM | NCI-H522 22.7 µM | Hs-578T 51.2 µM | MOLT-4 26.4 µM | SK-MEL-28 > 100 µM | UACC-62 17.7 µM | MCF7 19.4 µM | SF-295 28.2 µM | A498 37.2 µM | OVCAR-3 17.3 µM | M14 37 µM | NCI-H226 > 100 µM | NCI-H23 71.4 µM | SN12C 31.2 µM | EKVX 26.4 µM | HL-60 11.5 µM | SNB-19 20.9 µM
22.4 µM: HCT-15

O=C1Nc2ccccc2/C1=N/Nc1ccc([N+](=O)[O-])cc1[N+](=O)[O-]
13.8 µM: HCT-15
inactive: 786-0 9.25 µM | U-251 8.87 µM | NCI-H460 7.89 µM | OVCAR-4 10 µM | PC-3 12.9 µM | COLO 205 14.5 µM | HOP-92 3.58 µM | IGROV-1 7.94 µM | HCT-116 17.9 µM | SW-620 > 100 µM | CCRF-CEM > 100 µM | CAKI-1 20.4 µM | SK-MEL-5 10.6 µM | HOP-62 9.04 µM | T47D 15.7 µM | SNB-75 18.7 µM | ACHN 7.08 µM | K562 32.4 µM | HCC 2998 11.6 µM | MDA-N 44.3 µM | MDA-MB-231 13.2 µM | MDA-MB-435 98.4 µM | BT-549 12.1 µM | KM12 13.6 µM | OVCAR-5 12.6 µM | HT-29 19.1 µM | TK-10 9.08 µM | NCI/ADR-RES 8.09 µM | RXF 393 13.6 µM | DU-145 7.82 µM | UACC-257 8.49 µM | SK-OV-3 12.1 µM | RPMI-8226 26.1 µM | SF-539 2.48 µM | UO-31 13.2 µM | A549 12.5 µM | SF-268 20.9 µM | SR 25.6 µM | LOX IMVI 6.78 µM | OVCAR-8 9.59 µM | NCI-H522 12.9 µM | Hs-578T 6.37 µM | MOLT-4 > 100 µM | SK-MEL-28 63 µM | UACC-62 20.3 µM | MCF7 8.67 µM | SF-295 8.77 µM | A498 22.4 µM | OVCAR-3 3.13 µM | M14 12.9 µM | NCI-H226 12 µM | NCI-H23 12.4 µM | SN12C 11.3 µM | EKVX 1.5 µM | HL-60 > 100 µM | SNB-19 19.4 µM
